Literature values in patent publication US20090155363A1, “METHODS FOR ORAL ADMINISTRATION OF ACTIVE DRUGS” (priority 2007, published 2009).

Conditions: drug mixed with foods such as applesauce or vegetable juice, relative to administration of a nizatidine capsule with water

CNC(=C[N+](=O)[O-])NCCSCc1csc(CN(C)C)n1 [nizatidine]
reduction of bioavailability: 30 to 40%
